# From patent US11518981B2, “Methods of enhancing engraftment activity of hematopoietic stem cells” (CHILDREN'S HOSPITAL MEDICAL CENTER, priority 2017, dated 2022)
# Key:
# CD34^+38^−90^+ HSCs = experiment: ROS measurement (MITOSOX / CM-H2DCFDA) in HSCs; type: cell-based, human; settings: MITOSOX in CD34^+38^−90^+ cells
# Description: Freshly isolated CD34^+ cells were used, wherever possible, and especially for 0 h controls. In some experiments cryopreserved CD34^+ cells were thawed for 4 hrs in IMDM containing cytokines, then washed and used for experiments. CD34^+ cells were transduced in X-VIVO 10™ (Lonza) medium supplemented with 2% human serum albumin (Baxter), recombinant human Flt-3 ligand (Flt3-L; 200 ng/mL), stem cell factor (SCF; 300 ng/mL), thrombopoietin (TPO; 100 ng/mL) (all cytokines obtained from PeproTech), and penicillin-streptomycin (ThermoFisher Scientific) on non-tissue culture treated plates coated with retronectin (4 μg/cm2, CH-296, Takara Bio Inc.). […]
# PE-Cyanine 7 or APC-EFLUOR® 780, APC- or PE-conjugated antibodies directed to human CD34 (BD Biosciences 560710 or 555824), CD38 (eBiosciences, San Diego, Calif. 47-0389-42), CD90 (BioLegend 328120), CD45RA (eBiosciences 17-0458-42), CD49f (BD Biosciences 555736), CD45 (BD 55485 or Biolegend 304026), CD33 (eBiosciences 25-0338-42), CD19 (BD Biosciences 557791), or CD3 (BD Biosciences 555340). […] Total ROS and mitochondrial specific ROS were detected using 10 μM CM-H2DCFDA (ThermoFisher Scientific C6827) and 5 μM MITOSOX™ Red (Red Mitochondrial Superoxide Indicator) (ThermoFisher Scientific M36008) respectively, following manufacturer's instructions.
# CD34^+ cells = experiment: total CD34^+ cell number and viability (trypan blue); type: cell-based, human; settings: ex vivo culture with/without p38i
# Description: Freshly isolated CD34^+ cells were used, wherever possible, and especially for 0 h controls. In some experiments cryopreserved CD34^+ cells were thawed for 4 hrs in IMDM containing cytokines, then washed and used for experiments. CD34^+ cells were transduced in X-VIVO 10™ (Lonza) medium supplemented with 2% human serum albumin (Baxter), recombinant human Flt-3 ligand (Flt3-L; 200 ng/mL), stem cell factor (SCF; 300 ng/mL), thrombopoietin (TPO; 100 ng/mL) (all cytokines obtained from PeproTech), and penicillin-streptomycin (ThermoFisher Scientific) on non-tissue culture treated plates coated with retronectin (4 μg/cm2, CH-296, Takara Bio Inc.). For LV transduction, CD34^+ cells (2-5×10^6/mL) were pre-stimulated for 4-8 hours and transduced twice with lentivirus vector (LV) maintaining the vector concentration between 5×10^7 to 1×10^8 infectious unit (IU) per mL of media volume, 12-14 hours apart. Cells were kept in culture for a total of either 18-24 hours, 36-42 hours or 72-96 hours. For RV transduction, human CD34^+ cells were pre-stimulated for ˜2 days (42-48 hours) hours at a cell density of 3×10^5 cells/ml. Retronectin coated tissue culture flasks or plates were preloaded at room temperature with GALV pseudotyped RV twice for one hour each. The vector supernatant was removed and the cells were loaded into the RV loaded retronectin coated flasks. […]
# [1] = test system: human MPB derived CD34^+ cells; experiment: multi-lineage reconstitution (myeloid / B-lymphoid) in bone marrow of NSG mice; type: in vivo
# Description: NOD.Cg-Prkdcscid Il2rgtm1Wjl/SzJ (NSG) mice were purchased from The Jackson Laboratory (Bar Harbor, Me.). All animals were bred and maintained in a specific pathogen-free environment and all experiments were approved by the Institutional Animal Care and Use (IACUC) Committee. Male and female NSG mice aged 8 to 14 weeks old were fed doxycycline chow (TestDiet; Modified Prolab RMH-1500 with 0.0625% doxycycline) a week prior to, during and for 2 weeks post irradiation. Human engraftment was analyzed in bone marrow (BM), via BM aspirates performed at 6 and 12 weeks from left and right femurs. After sacrifice at 24 weeks, marrow from all of the primary mice (1 T) was harvested. Peripheral blood analysis was also performed in some experiments. Secondary transplants (2 T) were performed after mouse CD45^+ cells were depleted from BM harvested from each 1 T mouse separately, using Biotin Rat Anti-Mouse CD45 (BD Biosciences 553078) and Streptavidin Particles Plus-DM (BD Biosciences 557812) and injected into one irradiated (280 cGy) secondary NSG mouse. For calculating competitive repopulating units (CRU) from limiting dilution transplantation, the L-CALC^TM software (Stem Cell Technologies) was used. All of the mice used for this study were randomly assigned to a treatment group. No animals were excluded from the analysis. PE-Cyanine 7 or APC-EFLUOR® 780, APC- or PE-conjugated antibodies directed to human CD34 (BD Biosciences 560710 or 555824), CD38 (eBiosciences, San Diego, Calif. 47-0389-42), CD90 (BioLegend 328120), CD45RA (eBiosciences 17-0458-42), CD49f (BD Biosciences 555736), CD45 (BD 55485 or Biolegend 304026), CD33 (eBiosciences 25-0338-42), CD19 (BD Biosciences 557791), or CD3 (BD Biosciences 555340). Cells ( 5×10^5-1×10^6) were used to label with antibodies as per manufacturer instructions with the appropriate isotype controls. For phospho-flow, primary antibodies phospho-[…]), phospho-p44/42 MAPK (ERK 1⁄2) […]; […]), and phospho-JNK […] PE conjugate; […]) (all from Cell Signaling) were used for staining overnight followed by wash and secondary antibody stain including Goat anti-Rabbit IgG (H+L) or Goat anti-Rabbit IgG (H+L) or Pacific Blue (P-10994) antibody. Apoptosis assay was performed using PE Annexin V Apoptosis Detection Kit (BD Biosciences 559763) according to the manufacturer's instructions. Total ROS and mitochondrial specific ROS were detected using 10 μM CM-H2DCFDA (ThermoFisher Scientific C6827) and 5 μM MITOSOXTM Red (Red Mitochondrial Superoxide Indicator) (ThermoFisher Scientific M36008) respectively, following manufacturer's instructions.
smiles,measurement,setting,value
"Cc1ccc(-n2nc(C(C)(C)C)cc2NC(=O)Nc2ccc(OCCN3CCOCC3)c3ccccc23)cc1 [p38i, 1-[5-tert-butyl-2-(4-methylphenyl)pyrazol-3-yl]-3-[4-(2-morpholin-4-ylethoxy)naphthalen-1-yl]urea]",ROS levels in the HSC compartment,CD34^+38^−90^+ HSCs,no difference
same,"total number of CD34^+ cells, or viability in vitro",CD34^+ cells,no effect
same,myeloid skewing of the transduced progeny,"[1]; 24 week 1 T, cycling HSCs transduced (RV group)","somewhat reduced, but still quite significant"
same,multi-potentiality of the graft,"[1]; 24 week 1 T, gene transfer in first 24 h (non-cycling HSCs), culture up to 96 h",restored the multi-potentiality of the graft at 24 week (1 T) to levels similar to 0 h controls
same,lineage balance in transduced HSCs progeny,"[1]; limiting dilution transplant, 42 h LV, 6 mo post 1 T",had less effect
same,lineage balance in untransduced progeny,"[1]; limiting dilution transplant, 42 h LV, 6 mo post 1 T, higher HSPC dosage",sufficient to restore lineage balance
